Experiments:
[1] = test system: bovine cartilage explants; assay: GAG release inhibition (IL-1 induced) in bovine cartilage explants, Blyscan colorimetric assay; type: cell-based; conditions: for reduction in the GAG release induced by IL-1 (result in words): bovine explants, compared to culture stimulated with IL-1 in the presence of 0.25% DMSO
Experimental: (§1) Glycosaminoglycan (GAG) release is a test used to evaluate the effects of the compounds of the present invention on proteoglycan degradation induced by IL-1.
(§2) Full-depth articular cartilage were dissected from the metacarpophalangeal joints of calves of approximately 6 months of age or human cartilage from joint replacement surgery (approximately 4 mm diameter punches for bovine cartilage and 2 mm for human cartilage). After an equilibration period of 24 hours, explants were cultured for one day in 200 µl DMEM + hydrolyzed lactalbumin + 50 µg/ml vitamin C + penicillin/streptomycin + ITS (Insulin-Transferrin-Selenium) in the presence or absence of the compounds. After one day, GAG release was induced by addition of 10 ng of IL-1. Six days after IL-1 induction, the cartilage and culture medium were collected for analysis. During this six day period the culture medium was replaced every two days.
(§3) GAG release was analyzed using the Blyscan® colorimetric assay (Biocolor, Belfast, UK). To measure GAG content of the cartilage explants, the tissue was digested with papain. The culture medium of day 4, 6 and 8 was pooled before GAG analysis. GAG release was expressed as percentage of the total GAG content of the explants (i.e. GAG medium + GAG in papain digest).
(§4) A control condition with 0.25% DMSO was included because the test compounds were dissolved in DMSO. A condition with glucosamine hydrochloride was added for comparison.
(§5) Each culture condition was performed with cartilage of five different paws/patients to account for biological variation.
(§6) ANOVA followed by LSD post-hoc tests were used for determining differences between groups (p≤ 0.05 was considered significant).
(§7) Results in Tables 3 and 4 were expressed as a percentage reduction in GAG release compared to the control condition with DMSO stimulated with IL-1.

human cartilage explants = assay: GAG release inhibition (IL-1 induced) in human cartilage explants, Blyscan colorimetric assay; type: cell-based; conditions: for reduction of GAG release (result in words): doses 50 µM, 100 µM and 250 µM
Experimental: as §1, §2, §3, §4, §5, §6, §7

[2] = Bos taurus, bovine cartilage explants, percentage reduction in GAG release vs 0.25% DMSO + IL-1 control, * p≤ 0.05, (Inactive) = not statistically significant

| Compound | inhibition at 100 µM [1, 2] [%] | reduction in the GAG release induced by IL-1 (result in words) [1] | further results |
| --- | --- | --- | --- |
| COc1ccc(OP(=O)(NC(C(=O)OCc2ccccc2)C(C)C)OC[C@H]2OC(O)[C@H](N)[C@@H](O)[C@@H]2O)cc1 (some centres unmarked) [Reference compound 5, reference compound] | 4 |  |  |
| Cl.N[C@H]1C(O)O[C@H](CO)[C@@H](O)[C@@H]1O (some centres unmarked) [Glucosamine Hydrochloride] | 0 | did not caused any statistically significant reduction | inhibition at 50 µM (human cartilage explants; 50 µM, percentage reduction in GAG release vs 0.25% DMSO + IL-1 control, * p≤ 0.05, (Inactive) = not statistically significant): 7.8%; inhibition at 100 µM (human cartilage explants; 100 µM, percentage reduction in GAG release vs 0.25% DMSO + IL-1 control, * p≤ 0.05, (Inactive) = not statistically significant): 11.9%; inhibition at 250 µM (human cartilage explants; 250 µM, percentage reduction in GAG release vs 0.25% DMSO + IL-1 control, * p≤ 0.05, (Inactive) = not statistically significant): 11.9%; reduction of GAG release (result in words) (human cartilage explants): inactive; inhibition at 250 µM ([1]; Bos taurus, 250 µM, bovine cartilage explants, percentage reduction in GAG release vs 0.25% DMSO + IL-1 control, * p≤ 0.05, (Inactive) = not statistically significant): 0% |
| COc1ccc(OP(=O)(O[C@H]2[C@H](O)[C@@H](CO)OC(O)[C@@H]2NC(C)=O)N2CCC[C@H]2C(=O)OCc2ccccc2)cc1 (stereo partly drawn) [Compound 1, 2-acetamido-2-deoxy-3-O-[4-methoxyphenyl(benzyloxy-L-prolinyl)]phosphoramidate-D-glucopyranose] |  | statistically significant reduction of the GAG release | reduction of GAG release (result in words) (human cartilage explants): statistically significant activity |
| COc1ccc(OP(=O)(NC(C(=O)OCc2ccccc2)C(C)C)OC[C@H]2OC(O)[C@H](NC(C)=O)[C@@H](O)[C@@H]2O)cc1 (some centres unmarked) [Reference compound 4, reference compound] | 3 |  |  |
| CCCCCOC(=O)[C@@H]1CCCN1P(=O)(Oc1ccc(OC)cc1)O[C@H]1[C@H](O)[C@@H](NC(C)=O)C(O)O[C@@H]1CO (stereo partly drawn) [Compound 69, 2-acetamido-2-deoxy-4-0-[4-methoxyphenyl(n-pentoxy-L-prolinyl)]phosphoramidate-D-glucopyranose] |  | statistically significant reduction of the GAG release |  |
| COc1ccc(OP(=O)(N[C@H](C(=O)OCc2ccccc2)C(C)C)O[C@H]2[C@H](O)[C@@H](CO)OC(O)[C@@H]2N)cc1 (stereo partly drawn) [Compound 63, 2-amino-2-deoxy-3-O-[4-methoxyphenyl(benzyloxy-L-valinyl)]phosphoramidate-D-glucopyranose] | 31 | statistically significant reduction of the GAG release |  |
| CCC(C)OC(=O)[C@@H](NP(=O)(Oc1ccc(OC)cc1)O[C@H]1[C@H](O)[C@@H](CO)OC(O)[C@@H]1NC(C)=O)C(C)C (stereo partly drawn) [Compound 58, 2-acetamido-2-deoxy-3-O-[4-methoxyphenyl(2-butoxy-L-valinyl)]phosphoramidate-D-glucopyranose] | 41 | statistically significant reduction of the GAG release |  |
| C=CCCC(=O)N[C@H]1C(O)O[C@H](CO)[C@@H](O)[C@@H]1OP(=O)(N[C@H](C(=O)OCc1ccccc1)C(C)C)Oc1ccc(OC)cc1 (stereo partly drawn) [Compound 61, 2-deoxy-2-(pent-4-enoylamino)-3-O-[4-methoxyphenyl(benzyloxy-L-valinyl)]phosphoramidate-D-glucopyranose] | 47 | statistically significant reduction of the GAG release |  |
| CC(=O)N[C@H]1C(O)O[C@H](CO)[C@@H](O)[C@@H]1OP(=O)(Oc1ccccc1)N1CCC[C@H]1C(=O)OCc1ccccc1 (stereo partly drawn) [Compound 74, 2-acetamido-2-deoxy-3-O-[phenyl(benzyloxy-L-prolinyl)]phosphoramidate-D-glucopyranose] |  | statistically significant reduction of the GAG release |  |
| CCOC(=O)[C@@H]1CCCN1P(=O)(Oc1ccc(OC)cc1)O[C@H]1[C@H](O)[C@@H](NC(C)=O)C(O)O[C@@H]1CO (stereo partly drawn) [Compound 32, 2-acetamido-2-deoxy-4-O-[4-methoxyphenyl(ethoxy-L-prolinyl)]phosphoramidate-D-glucopyranose] |  | statistically significant reduction of the GAG release |  |
| COc1ccc(OP(=O)(N[C@H](C(=O)OCc2ccccc2)C(C)C)O[C@H]2[C@H](O)[C@@H](CO)OC(O)[C@@H]2NC(C)=O)cc1 (stereo partly drawn) [Compound 16, 2-acetamido-2-deoxy-3-O-[4-methoxyphenyl(benzyloxy-L-valinyl)]phosphoramidate-D-glucopyranose] | 27 | statistically significant reduction of the GAG release |  |
| 2-deoxy-2-(pent-4-enoylamino)-3-O-[4-methoxyphenyl(ethoxy-L-prolinyl)]phosphoramidate-D-glucopyranose [Compound 87] |  | statistically significant reduction of the GAG release | GAG release inhibition ([1]; 250 µM, bovine cartilage explants, percentage reduction in GAG release vs 0.25% DMSO + IL-1 control, * p≤ 0.05, (Inactive) = not statistically significant): 33.3%* |
| CCOC(=O)[C@@H]1CCCN1P(=O)(Oc1ccc(OC)cc1)O[C@H]1[C@H](O)[C@@H](CO)OC(O)[C@@H]1NC(C)=O (some centres unmarked) [Compound 31] |  | statistically significant reduction of the GAG release |  |
| CCOC(=O)[C@@H]1CCCN1P(=O)(Oc1cccc2ccccc12)O[C@H]1[C@H](O)[C@@H](CO)OC(O)[C@@H]1NC(C)=O (stereo partly drawn) [Compound 80, 2-acetamido-2-deoxy-3-O-[1-naphtyl(ethoxy-L-prolinyl)]phosphoramidate-D-glucopyranose] |  | statistically significant reduction of the GAG release |  |
